Key:
PC-12 [1] = assay: Neuroprotection against Amyloid beta (25 to 35)-induced toxicity in rat PC-12 cells assessed as increase in cell viability at 50 uM for 24 hrs by MTT assay relative to control; type: functional
PC-12 [2] = assay: Neuroprotection against Amyloid beta (25 to 35)-induced toxicity in rat PC-12 cells assessed as increase in cell viability at 25 uM for 24 hrs by MTT assay relative to control; type: functional
PC-12 [3] = assay: Neuroprotection against Amyloid beta (25 to 35)-induced toxicity in rat PC-12 cells assessed as increase in cell viability at 10 uM for 24 hrs by MTT assay relative to control; type: functional
[4] = Antioxidant activity assessed as DPPH radical scavenging activity incubated for 30 mins by spectrophotometric analysis; type: functional
[5] = target: Aldo-keto reductase family 1 member B1 (Homo sapiens, UniProt P15121); assay: Inhibition of aldose reductase (unknown origin) using DL-glyceraldehyde as substrate
HL-60 = assay: Anti-cancer activity against human HL-60 cells; type: functional, cell-based

CCCCC(C)Oc1c(OC)cc(CCc2ccc(OC)c(OC)c2)cc1OC (configuration not stated)
Activity (PC-12 [1]): 52.18% | Activity (PC-12 [2]): 50.25% | Activity (PC-12 [3]): 50.67%

COc1cc(CCc2ccc(O)c(O)c2)cc(O)c1O
IC50 [4]: 15.6 µM

Oc1cc(O)cc(CCc2ccc(F)cc2)c1
IC50 [5]: 566 µM

COc1ccc(CCc2cc(OC)c(OCC(C)C)c(OC)c2)cc1OC
Activity (PC-12 [1]): 49.89% | Activity (PC-12 [2]): 50.12% | Activity (PC-12 [3]): 54.53%

COc1ccc(CCc2cc(OC)c(OC(=O)c3ccccn3)c(OC)c2)cc1OC
Activity (PC-12 [1]): 54.6% | Activity (PC-12 [2]): 50.1% | Activity (PC-12 [3]): 52.97%

Oc1ccc(CCc2cc(Cl)ccc2O)cc1O
IC50 [5]: 21.8 µM

CC(C)c1ccc(CCc2cc(O)cc(O)c2)cc1
IC50 [5]: 513 µM

CCCC(=O)Oc1c(OC)cc(CCc2ccc(OC)c(OC)c2)cc1OC
Activity (PC-12 [1]): 49.37% | Activity (PC-12 [2]): 50.12% | Activity (PC-12 [3]): 54.89%

COc1cccc(CCc2cc(O)c(O)c(OC)c2)c1
IC50 [4]: 40.3 µM

COc1ccc(CCc2cc(OC)c(OC(=O)C(C)C)c(OC)c2)cc1OC
Activity (PC-12 [1]): 45.91% | Activity (PC-12 [2]): 47.33% | Activity (PC-12 [3]): 49.34%

CCCCC(CC)Oc1c(OC)cc(CCc2ccc(OC)c(OC)c2)cc1OC (configuration not stated)
Activity (PC-12 [1]): 58.88% | Activity (PC-12 [2]): 54.78% | Activity (PC-12 [3]): 51.03%

CCCC(CCC)C(=O)Oc1c(OC)cc(CCc2ccc(OC)c(OC)c2)cc1OC
Activity (PC-12 [1]): 60.02% | Activity (PC-12 [2]): 55.21% | Activity (PC-12 [3]): 50.11%

COc1ccc(CCc2cc(OC)c(O)c3c2C(Cc2ccc(O)cc2)c2cc(O)c(O)c(OC)c2O3)cc1 (configuration not stated)
IC50 [4]: 32.4 µM

O=C1O[C@H]([C@@H](O)CO)C(O)=C1O [ASCORBIC ACID]
IC50 [4]: 23.2 µM

COc1ccc(CC2C3=C(Cc4c2cc(O)c(O)c4OC)C(=O)c2cc(O)c4cc(O)ccc4c2C3=O)cc1 (configuration not stated)
IC50 [4]: 19.8 µM

COc1ccc(CCc2cc(O)c(OC)c3c2Oc2c(cc(O)c(OC)c2O)C3Cc2ccc(OC)cc2)cc1 (configuration not stated)
IC50 (HL-60): 6.4 µM

COc1cc(CCc2ccc(O)c(O)c2)cc(OC)c1
IC50 [5]: 39.2 µM

CCC(C)Oc1c(OC)cc(CCc2ccc(OC)c(OC)c2)cc1OC (configuration not stated)
Activity (PC-12 [1]): 48.75% | Activity (PC-12 [2]): 49.73% | Activity (PC-12 [3]): 49.02%

CCCCC(=O)Oc1c(OC)cc(CCc2ccc(OC)c(OC)c2)cc1OC
Activity (PC-12 [1]): 48.63% | Activity (PC-12 [2]): 41.9% | Activity (PC-12 [3]): 49.73%

COc1cc([C@H](Cc2ccc(O)cc2)OC)cc(O)c1O
IC50 [4]: 34.2 µM

CCOc1c(OC)cc(CCc2ccc(OC)c(OC)c2)cc1OC
Activity (PC-12 [1]): 46.15% | Activity (PC-12 [2]): 50.92% | Activity (PC-12 [3]): 53.84%

COc1ccc(CC2c3cc(O)cc(CCc4ccc(O)cc4)c3Oc3c2cc(O)c(OC)c3O)cc1 (configuration not stated)
IC50 (HL-60): 2.1 µM

Oc1ccc(CCc2ccc(O)c(O)c2)cc1O
IC50 [5]: 534 µM

COc1cc(CC(O)c2cc(OC)c(O)c(OC)c2)ccc1O (configuration not stated) [NOBILIN D]
IC50 [4]: 19.9 µM

COc1ccc(CCc2cc(OC)c(OCCC(C)C)c(OC)c2)cc1OC
Activity (PC-12 [1]): 49.48% | Activity (PC-12 [2]): 50.16% | Activity (PC-12 [3]): 50.21%

COc1ccc(CCc2cc(OC)c(OC(=O)CCC(C)C)c(OC)c2)cc1OC
Activity (PC-12 [1]): 49.57% | Activity (PC-12 [2]): 50.4% | Activity (PC-12 [3]): 49.83%

CCC(=O)Oc1c(OC)cc(CCc2ccc(OC)c(OC)c2)cc1OC
Activity (PC-12 [1]): 44.4% | Activity (PC-12 [2]): 44.21% | Activity (PC-12 [3]): 45.31%

COc1ccc(CCc2cc(OC)c(OC(=O)CCc3ccccc3)c(OC)c2)cc1OC
Activity (PC-12 [1]): 49.84% | Activity (PC-12 [2]): 50.22% | Activity (PC-12 [3]): 54%

COc1ccc(CCc2cc(OC)c(OC(=O)c3ccncc3)c(OC)c2)cc1OC
Activity (PC-12 [1]): 46.56% | Activity (PC-12 [2]): 50.71% | Activity (PC-12 [3]): 53.53%

CCCCOc1c(OC)cc(CCc2ccc(OC)c(OC)c2)cc1OC
Activity (PC-12 [1]): 53.44% | Activity (PC-12 [2]): 52.03% | Activity (PC-12 [3]): 51.79%

CCCOc1c(OC)cc(CCc2ccc(OC)c(OC)c2)cc1OC
Activity (PC-12 [1]): 48.81% | Activity (PC-12 [2]): 49.11% | Activity (PC-12 [3]): 49.21%

CCO[C@@H](Cc1ccc(O)cc1)c1cc(O)c(O)c(OC)c1
IC50 [4]: 34.5 µM

COc1cc(CCc2ccc(O)c(O)c2)cc(OC)c1O
IC50 [5]: 17.8 µM
